Experimental data: article PMC2981624 (Chemical research in toxicology, 2010)
“Also recorded” adds a separate entry of the source. Read-outs that look alike come from different tables or passages of the source.

Experiments:
[1] = test system: primary normal human lung cells; details: 0.1 to 10 μM; cited from earlier work
[2] = test system: Salmonella typhimurium strain TA100; details: 10 and 100 μM (Figure 1)
[3] = test system: Salmonella typhimurium strain TA98; details: for concentration dependence of mutagenicity (revertants/plate): 0.1-100 μM
[4] = test system: Salmonella typhimurium strain TA98; details: cited from earlier work
[5] = test system: Salmonella typhimurium strain TA100; details: cited from earlier work
lung adenoma = details: cited from earlier work
[6] = 0.5 mg human lung microsomes, presence of NADPH
[7] = 2 mg rat liver S9, presence of NADPH
[8] = 10 μM, 50 pmol 1A1 Supersomes, presence of NADPH
[9] = 10 μM, 50 pmol recombinant 2A13, presence of NADPH
[10] = 0.5 mg human lung microsomes, presence of NADPH, equal concentrations

In the case of `Cc1c[nH]c2ccccc12` [3MI, 3-methylindole], the “induction of markers of carcinogenesis” value [1] is listed as “induce markers of carcinogenesis, including DNA damage and p53 nuclear localization”, the “mutagenicity (revertants/plate)” value [2, 6] is listed as “failed to increase mutagenesis at any concentration” and the “mutagenicity (revertants/plate)” value [2, 7] is listed as “failed to increase mutagenesis at any concentration”. For the same compound, the “mutagenicity (revertants/plate)” value [3, 8] was “statistically significant increases in mutagenicity”, the “mutagenicity (number of mutants)” value ([3]; 10 μM, 50 pmol purified 2F3, presence of NADPH) was “significant increase in the number of mutants” and the “mutagenicity (revertants/plate)” value [3, 9] was “statistically significant increases in the number of revertants per plate; also recorded: highest levels of mutagenicity”. For the same compound, the “cytotoxicity to bacteria (density of background lawn)” value ([3]; 100 μM, 0.5 mg human lung microsomes) was “cytotoxic”, the “concentration dependence of mutagenicity (revertants/plate)” value [3, 6] was “increasing mutagenicity up through the 10 μM concentration, but lower revertants/plate with the highest concentration (100 μM)” and the “mutagenicity compared to BaP” value [3, 10] was “more mutagenic than BaP was at the 1.0 μM (p=0.006) and 10 μM (p=0.005) concentrations, although not at the 0.1 μM (p=0.1) or 100 μM (p=0.9) concentrations”. For the same compound, the “mutagenicity compared to NNK” value [3, 10] was “significantly more mutagenic than NNK was at the 0.1 μM (p=0.05), 1.0 μM (p=0.002), and 10 μM (p=0.007) concentrations, although not at the 100 μM (p=0.8) concentration”, the “mutagenicity (revertants/plate)” value ([3]; 2 mg human liver S9, presence of NADPH) was “Neither incubation of 3MI with Salmonella typhimurium strain TA98 and 2 mg human liver S9, or 2 mg rat liver S9 was mutagenic; also recorded: failed to produce 3MI-mediated mutagenesis” and the “mutagenicity (revertants/plate)” value [3, 7] was “Neither incubation of 3MI with Salmonella typhimurium strain TA98 and 2 mg human liver S9, or 2 mg rat liver S9 was mutagenic; also recorded: failed to produce 3MI-mediated mutagenesis”. The mutagenicity ([4]; purified CYP2F3) was “mutagenic”, the mutagenicity ([4]; rat liver S9 fractions) was “not mutagenic” and the mutagenicity ([5]; rat liver S9) was “not mutagenic”.

In the case of `COc1c2occc2cc2ccc(=O)oc12` [8-MOP, 8-methoxypsoralen], the chemopreventive effect (lung adenoma) is listed as “chemopreventive effect”.

In the case of `Nn1nnc2ccccc21` [ABT, 1-aminobenzotriazole, reference compound], the “mutagenicity of inhibitor alone” value ([3]; 0.5 mM ABT alone, 0.5 mg human lung microsomes) is reported as “did not prove to be mutagenic”, the “effect on 3MI-mediated mutagenesis” value ([3]; 0.5 mM ABT with 100 μM 3MI, 0.5 mg human lung microsomes, presence of NADPH) is reported as “completely inhibited the mutagenesis” and the “effect on B(a)P-mediated mutagenesis” value ([3]; 0.5 mM ABT with 100 μM B(a)P, 0.5 mg human lung microsomes, presence of NADPH) is reported as “completely inhibited the mutagenesis”. For the same compound, the “effect on NNK-mediated mutagenesis” value ([3]; 0.5 mM ABT with 100 μM NNK, 0.5 mg human lung microsomes, presence of NADPH) was “completely inhibited the mutagenesis”.

For `CN(CCCC(=O)c1cccnc1)N=O` [NNK, 4-(methylnitrosamino)-1-(3-pyridyl)-1-butanone, reference compound], the “mutagenicity (revertants/plate)” value [2, 6] was “failed to increase mutagenesis at any concentration”, the “mutagenicity (revertants/plate)” value [2, 7] was “failed to increase mutagenesis at any concentration” and the “mutagenicity (revertants/plate)” value [3, 8] was “did not result in an increased number of revertants”. For the same compound, the “mutagenicity (revertants/plate)” value [3, 9] was “statistically significant increases in the number of revertants per plate”, the “concentration dependence of mutagenicity (revertants/plate)” value [3, 6] was “mutagenicity increased in a concentration-dependent manner up through the 100 μM concentration” and the “base pair substitution mutations” value [5] was “does not cause base pair substitution mutations”.
